Legend:
[1] = In vitro release of BSA from liposomes, dialysis method; type: physicochemical; conditions: free BSA, 4 h, 37° C., PBS pH 7.4
Experimental: in vitro release experiments of BSA from liposomes were performed at 37°±0.5° C. using the dialysis method under constant shaking (60 rpm). A 10 ml of phosphat buffered saline (PBS) pH 7.4 was used to test for the drug release for 48 h. Dialysis bags (Spectra/Por Biotech Cellulose Ester Dialysis Membrane MWCO: 300,000 Spectrum Ls Rancho Dominguez, Calif., USA) containing 500 μl liposomes were introduced into the system. All of the release media was withdrawn and replaced with the same volume of fresh medium at designated time points to maintain sink conditions. The sampled medium (1.0 ml out of 10 ml) was mixed with Bradford's reagent and the absorbance was measured as described in the method for determination of encapsulation efficiency. The concentration of the BSA released from the liposomes was calculated from the obtained linear calibration curve (r≧0.99) as previously described in the method for determination of encapsulation efficiency.

[2] = system: human lung epithelial cell line L-132; experiment: Cell uptake of CF-loaded liposomal formulations (fluorometry, flow cytometry, CLSM); type: cell-based; conditions: L-132 cells, 0.5-2 h at 37° C., 1:100 dilution
Experimental: Cells from the human lung epithelial cell line L-132 were cultured in MEM medium containing Earle's salts and L-glutamine and supplemented with 10% fetal calf serum (FCS), under standard conditions at 37° C. with 5% CO2 and 95% air. To validate the fluorimetric analysis, a standard curve was created during each assay. To perform the fluorometric assay cells were seeded at 25×10^4 cells/well onto 24-well plates (total volume was 1 ml/well). Twenty four hours later, the culture medium was removed. The formulations were added to the cells in 1:100 dilution in MEM medium (10 μl of liposomes suspension+990 μl medium) and incubated for 0.5-2 h at 37° C. Following incubation cells were washed two times with cold PBS to end the uptake experiment. Then the washed cells were lysed with 0.2% Triton X-100 in 0.2 N NaOH (1.0 ml/well) for 0.5-1 hour at room temperature. Aliquots from each well were transferred into 96-well plates. The cell fluorescence intensity was determined using a microplate fluorometer at an excitation wavelength of 485 nm and emission wavelength of 520 nm and Gain level set to 800 in the software (FIG. 4). […] The cells were kept on ice and analysized by flow cytometry using a FACscan flow cytometer for cell-associated CF fluorescence. The mean fluorescence intensity of cells was determined for each sample (FIG. 5). […]

[3] = Nasal tissue penetration, Franz type permeation cell, CLSM; type: in vitro ADME, bovine; conditions: CF loaded, 1 hour incubation, 37° C.
Experimental: To investigate the ability of the TPGS:DDA:SPC liposomes of Example 1 to cross nasal mucosa and penetrate into bovine nasal tissue fresh bovine nasal tissues were collected from freshly slaughtered animals. The mucosal tissue was removed and preserved in Krebs Bicarbonate Ringer (KBR) buffer pH 7.4. Liposome penetration studies were performed immediately to maintain the viability of the cells tissue being used. A Franz type permeation cell was used in this study; the recipient compartment filled with KBR buffer and stirred constantly. The temperature of the Franz cell was maintained at 37° C. with jacketed water flow. A 1.5 cm^2 tissue section was inserted between the recipient and donor compartments and 0.5 ml of reconstituted liposomal dispersion or free carboxyfluorescein (CF) solutions containing an equivalent amount of CF were loaded into the donor compartment, and left for 1 hour incubation. The tissues were then washed with KBR buffer and frozen in optimal cutting temperature compound at −80° C. for cryosection. Samples of 10 μm thickness were obtained using a cryostat (MICROM HM 550). Propidium iodide (PI) solution was used to stain the cell nuclei and cryosectioned tissues were mounted in glycerol containing 1,4-phenylenediamine (0.1 g/l). Penetration was observed using confocal laser scanning microscopy (CLSM). […]

Row | penetration into bovine nasal tissue (CLSM) [3] | Substance | cumulative release of BSA [1] [%] | amount of CF incorporated into cells [2]
1 | – | bovine serum albumin [free BSA] | 46.6±2.6 | –
2 | completely washed out | carboxyfluorescein [free CF] | – | free CF<CF-loaded SPC liposomes <CF-loaded TPGS:DDA:SPC liposomes

— patent US20150079156A1, “LIPOSOMAL DELIVERY SYSTEM” (THE QUEEN'S UNIVERSITY OF BELFAST, priority 2012, published 2015)
